Laboratory results: publication PMC12002130, “Proteorhodopsin insights into the molecular mechanism of vectorial proton transport” (Science Advances, 2025)

Key:
[1] = target: T1, MAR-Arf1L8K,Q71L chimera (Candidatus Actinomarina minuta, UniProt S5DM51); assay: X-ray crystallography; type: binding; conditions: covalent; Schiff base to Lys200 of MAR; dark (ground) state, pH 7.0; all-trans form taken from MAR ground state
T1 construct: MAR fused to bovine Arf1 (L8K, Q71L) as crystallisation spacer on the cytoplasmic side; C-terminal GSGGSHHHHHH tag; expressed in E. coli C41(DE3); retinal site wholly in MAR

[2] = target: T1, MAR-Arf1L8K,Q71L chimera; assay: X-ray crystallography, cryotrapped N state; type: binding; conditions: covalent; photoisomer formed in situ by 532-nm light; pH 7.0; 2.3 A; isomer not assignable from density alone
[3] = target: Asp72 (position 72, …); assay: UV-vis; conditions: dark (ground) state, solubilized MAR with all-trans retinal

T1 sequence (P84080 2-181 L8K/Q71L, one chain of several, further chain): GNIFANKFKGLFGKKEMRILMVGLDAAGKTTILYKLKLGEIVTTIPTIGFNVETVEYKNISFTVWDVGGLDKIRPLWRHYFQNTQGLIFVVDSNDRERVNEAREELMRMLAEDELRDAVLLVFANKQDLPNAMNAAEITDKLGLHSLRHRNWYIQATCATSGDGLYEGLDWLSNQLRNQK

Molecule: CC1=C(/C=C/C(C)=C/C=C/C(C)=C/C=O)C(C)(C)CCC1 [all-trans retinal]
- X-ray crystallography [1]: The conformation of the MAR molecule is similar to that in the ground state

Molecule: CC1=C(/C=C/C(C)=C/C=C/C(C)=C\C=O)C(C)(C)CCC1 [13-cis,15-anti retinal]
- X-ray crystallography, cryotrapped N state [2]: the retinal conformation in the N state represents the 13-cis,15-anti form

B1: MAR (marine actinobacterial rhodopsin, MacR), a proteorhodopsin (Candidatus Actinomarina minuta) (protein)
chain: MEELTYRLFMVATVGMLAGTVFLLASSREVKPEHRRGVYISALVCGIAWYHYQKMGASWESGSYDTGLRYVDWVLTVPLMFVEVLAVTRKGAAYNEAVRNWGIAATVMIGAGYYGETSAAGSNEYWTGFVIAMATYVWLMRNLQAEGEGLKGDQAVAFENIKNLILVGWIIYPLGYIAPVVGDFDAIREVLYTIADIINKVGLGVLVLQMARVQSGEKVSPGGGSHHHHHH
- pKa [3]: ~7.4
